# Data taken from patent US20080311158A1, “Hepatitis C Virus Replication System” (priority 2004, published 2008).
# “Also recorded” adds a separate entry of the source.
# Experiments:
# [1] = test system: HCV RNA in 21-5/R809 cells; assay: HCV RNA levels after IFN-α treatment of 21-5/R809 cell culture; assay type: cell-based, hepatitis C virus; details: 21-5/R809 cells incubated with IFN-α
# Description: FIGS. 17 and 18 show levels of HCV RNA or ribosomal RNA after IFN-α treatment of cell culture.
# [2] = test system: E1 and E2 distribution in 21-5/R809 cells; assay: Intracellular immunofluorescence of E1/E2 in 21-5/R809 cells before and after IFN-α treatment; assay type: cell-based, human; details: anti E1/E2 staining, FIG. 16
# Experimental: Cells were stained with anti E1/E2.
# Cells were plated on […] coverslips in 24-well plates at a density of 5×10^4 cells per well. One day after seeding, cells were washed in PBS, fixed in 4% formaldehyde for 30 min and then permeabilized with 0.1% Triton X-100 in PBS for 15 min. Cells were then pretreated with blocking solution (0.5% bovin serum albumin in PBS) for 30 min and incubated for 1 h at room temperature with the primary antibodies diluted in blocking solution according to the manufacturer's instructions. After three washes in PBS, AlexaFluor-conjugated secondary antibodies were added to the cells at a 1:200 dilution for 1 h at room temperature. After washings with PBS, coverslips were washed in distilled water, and mounted in aqueous mounting medium Vectashield with DAPI (4′,6′-diamidino-2-phenylindole).
# [3] = test system: HCV replication; details: reference 101; cited from earlier work
substance,measurement,setting,value
Interferon alpha [IFN-α],"HCV RNA levels, absolute",[1]; FIG. 17,decrease
same,HCV RNA levels relative to ribosomal RNA,[1]; FIG. 18,decrease
same,ER-pattern distribution of E1 and E2,[2],lose the typical ER-pattern distribution of E1 and E2; also recorded: changed the ER-pattern distribution of E1 and E2
same,HCV replication in cell culture,[3],inhibit HCV replication
